# In patent US8449898B2 (priority 2007, dated 2013):
# Where two headings read alike, the source gives them in different places.
# Legend:
# [1] = test system: Phytophthora infestans (the causal agent of tomato late blight); assay: whole plant or invertebrate; type: in vivo; conditions: for TLB Obsd (disease control rating): Table A
# [2] = test system: Pseudoperonospora cubensis (the causal agent of cucumber downy mildew); assay: Test B: cucumber downy mildew, preventive spray on cucumber seedlings; type: in vivo; conditions: for CDM Obsd (disease control rating): Table A
# [3] = Table D, component (b) alone at 2 ppm
# [4] = Table D, component (b) alone at 10 ppm
# [5] = Table D, component (b) alone at 40 ppm
# [6] = Table D, component (b) alone at 200 ppm
# [7] = Table D, component (b) alone at 500 ppm
structure (smiles),measurement,setting,value
CON=C(C(=O)OC)c1ccccc1CON=C(C)c1cccc(C(F)(F)F)c1 [trifloxystrobin],pest or weed control at 0.4 ppm,"[1]; Phytophthora infestans, read-out: TLB Obsd (disease control rating), Table C, component (b) alone 0.4 ppm",0%
same,pest or weed control at 2 ppm,"[1]; Phytophthora infestans, read-out: TLB Obsd (disease control rating), Table C, component (b) alone 2 ppm",40%
same,pest or weed control at 10 ppm,"[1]; Phytophthora infestans, read-out: TLB Obsd (disease control rating), Table C, component (b) alone 10 ppm",26%
same,pest or weed control at 40 ppm,"[1]; Phytophthora infestans, read-out: TLB Obsd (disease control rating), Table C, component (b) alone 40 ppm",45%
same,pest or weed control at 200 ppm,"[1]; Phytophthora infestans, read-out: TLB Obsd (disease control rating), Table C, component (b) alone 200 ppm",53%
same,pest or weed control at 0.04 ppm,"[1]; Phytophthora infestans, read-out: TLB Obsd, component (b) alone, 0.04 ppm",0%
same,pest or weed control at 2 ppm,"[1]; Phytophthora infestans, read-out: TLB Obsd, component (b) alone, 2 ppm",0%
same,pest or weed control at 10 ppm,"[1]; Phytophthora infestans, read-out: TLB Obsd, component (b) alone, 10 ppm",72%
same,pest or weed control at 40 ppm,"[1]; Phytophthora infestans, read-out: TLB Obsd, component (b) alone, 40 ppm",38%
same,pest or weed control at 200 ppm,"[1]; Phytophthora infestans, read-out: TLB Obsd, component (b) alone, 200 ppm",25%
same,pest or weed control at 0.4 ppm,"[2]; Pseudoperonospora cubensis, Table C, component (b) alone 0.4 ppm, read-out: CDM Obsd (disease control rating)",47%
same,pest or weed control at 2 ppm,"[2]; Pseudoperonospora cubensis, Table C, component (b) alone 2 ppm, read-out: CDM Obsd (disease control rating)",47%
same,pest or weed control at 10 ppm,"[2]; Pseudoperonospora cubensis, Table C, component (b) alone 10 ppm, read-out: CDM Obsd (disease control rating)",58%
same,pest or weed control at 40 ppm,"[2]; Pseudoperonospora cubensis, Table C, component (b) alone 40 ppm, read-out: CDM Obsd (disease control rating)",94%
same,pest or weed control at 200 ppm,"[2]; Pseudoperonospora cubensis, Table C, component (b) alone 200 ppm, read-out: CDM Obsd (disease control rating)",100%
same,pest or weed control at 0.4 µg/mL,"[2]; Pseudoperonospora cubensis, component (b) alone 0.4 ppm (Compound 1 0 ppm), read-out: CDM Obsd",47%
same,pest or weed control at 2 µg/mL,"[2]; Pseudoperonospora cubensis, component (b) alone 2 ppm (Compound 1 0 ppm), read-out: CDM Obsd",47%
same,pest or weed control at 10 µg/mL,"[2]; Pseudoperonospora cubensis, component (b) alone 10 ppm (Compound 1 0 ppm), read-out: CDM Obsd",57%
same,pest or weed control at 40 µg/mL,"[2]; Pseudoperonospora cubensis, component (b) alone 40 ppm (Compound 1 0 ppm), read-out: CDM Obsd",93%
same,pest or weed control at 200 µg/mL,"[2]; Pseudoperonospora cubensis, component (b) alone 200 ppm (Compound 1 0 ppm), read-out: CDM Obsd",100%
same,pest or weed control at 0.04 ppm,"[2]; Pseudoperonospora cubensis, component (b) alone, 0.04 ppm, read-out: CDM Obsd",0%
same,pest or weed control at 2 ppm,"[2]; Pseudoperonospora cubensis, component (b) alone, 2 ppm, read-out: CDM Obsd",0%
same,pest or weed control at 10 ppm,"[2]; Pseudoperonospora cubensis, component (b) alone, 10 ppm, read-out: CDM Obsd",16%
same,pest or weed control at 40 ppm,"[2]; Pseudoperonospora cubensis, component (b) alone, 40 ppm, read-out: CDM Obsd",89%
same,pest or weed control at 200 ppm,"[2]; Pseudoperonospora cubensis, component (b) alone, 200 ppm, read-out: CDM Obsd",100%
CCCOc1nc2ccc(I)cc2c(=O)n1CCC [proquinazid],TLB Obsd (disease control rating),[1]; component (b) alone 0.4 ppm,0%
same,TLB Obsd (disease control rating),[1]; component (b) alone 2 ppm,0%
same,TLB Obsd (disease control rating),[1]; component (b) alone 10 ppm,0%
same,TLB Obsd (disease control rating),[1]; component (b) alone 40 ppm,24%
same,TLB Obsd (disease control rating),[1]; component (b) alone 200 ppm,0%
same,TLB Obsd,"[1]; component (b) alone, 0.04 ppm",17%
same,TLB Obsd,"[1]; component (b) alone, 2 ppm",0%
same,TLB Obsd,"[1]; component (b) alone, 10 ppm",8%
same,TLB Obsd,"[1]; component (b) alone, 40 ppm",8%
same,TLB Obsd,"[1]; component (b) alone, 200 ppm",17%
same,CDM Obsd (disease control rating),[2]; component (b) alone 0.4 ppm,47%
same,CDM Obsd (disease control rating),[2]; component (b) alone 2 ppm,47%
same,CDM Obsd (disease control rating),[2]; component (b) alone 10 ppm,47%
same,CDM Obsd (disease control rating),[2]; component (b) alone 40 ppm,47%
same,CDM Obsd (disease control rating),[2]; component (b) alone 200 ppm,47%
same,CDM Obsd,"[2]; Table G, component (b) alone at 0.4 ppm",26%
same,CDM Obsd,"[2]; Table G, component (b) alone at 2 ppm",26%
same,CDM Obsd,"[2]; Table G, component (b) alone at 10 ppm",26%
same,CDM Obsd,"[2]; Table G, component (b) alone at 40 ppm",26%
same,CDM Obsd,"[2]; Table G, component (b) alone at 200 ppm",26%
same,CDM Obsd,"[2]; component (b) alone, 0.04 ppm",0%
same,CDM Obsd,"[2]; component (b) alone, 2 ppm",0%
same,CDM Obsd,"[2]; component (b) alone, 10 ppm",0%
same,CDM Obsd,"[2]; component (b) alone, 40 ppm",0%
same,CDM Obsd,"[2]; component (b) alone, 200 ppm",0%
C#CCOc1ccc(CCNC(=O)C(OCC#C)c2ccc(Cl)cc2)cc1OC (stereo not shown) [mandipropamid],TLB Obsd,"[1]; Table E, component (b) alone at 0.016 ppm",26%
same,TLB Obsd,"[1]; Table E, component (b) alone at 0.08 ppm",33%
same,TLB Obsd,"[1]; Table E, component (b) alone at 0.4 ppm",88%
same,TLB Obsd,"[1]; Table E, component (b) alone at 2 ppm",100%
same,TLB Obsd,"[1]; Table E, component (b) alone at 10 ppm",100%
same,"TLB Obsd (observed effect, tomato late blight)","[1]; component (b) alone, 0.08 ppm",80
same,"TLB Obsd (observed effect, tomato late blight)","[1]; component (b) alone, 0.4 ppm",97
same,"TLB Obsd (observed effect, tomato late blight)","[1]; component (b) alone, 2 ppm",99
same,"TLB Obsd (observed effect, tomato late blight)","[1]; component (b) alone, 10 ppm",100
same,"TLB Obsd (observed effect, tomato late blight)","[1]; component (b) alone, 40 ppm",100
same,CDM Obsd,"[2]; Table F, component (b) alone at 0.016 ppm",33%
same,CDM Obsd,"[2]; Table F, component (b) alone at 0.08 ppm",97%
same,CDM Obsd,"[2]; Table F, component (b) alone at 0.4 ppm",100%
same,CDM Obsd,"[2]; Table F, component (b) alone at 2 ppm",100%
same,CDM Obsd,"[2]; Table F, component (b) alone at 10 ppm",100%
same,"CDM Obsd (observed effect, cucumber downy mildew)","[2]; component (b) alone, 0.08 ppm",86
same,"CDM Obsd (observed effect, cucumber downy mildew)","[2]; component (b) alone, 0.4 ppm",100
same,"CDM Obsd (observed effect, cucumber downy mildew)","[2]; component (b) alone, 2 ppm",100
same,"CDM Obsd (observed effect, cucumber downy mildew)","[2]; component (b) alone, 10 ppm",100
same,"CDM Obsd (observed effect, cucumber downy mildew)","[2]; component (b) alone, 40 ppm",100
"CC1CCN(c2c(-c3c(F)cc(F)cc3F)c(Cl)nc3ncnn23)CC1 [BAS600, 5-chloro-6-(2,4,6-trifluorophenyl)-7-(4-methylpiperidin-1-yl)[1,2,4]triazolo[1,5-α]pyrimidine]",TLB Obsd,[1]; [3],26%
same,TLB Obsd,[1]; [4],6%
same,TLB Obsd,[1]; [5],56%
same,TLB Obsd,[1]; [6],20%
same,TLB Obsd,[1]; [7],12%
same,TLB Obsd,"[1]; component (b) alone, 2 ppm",7%
same,TLB Obsd,"[1]; component (b) alone, 10 ppm",0%
same,TLB Obsd,"[1]; component (b) alone, 40 ppm",15%
same,TLB Obsd,"[1]; component (b) alone, 200 ppm",30%
same,TLB Obsd,"[1]; component (b) alone, 500 ppm",15%
same,CDM Obsd,[2]; [3],47%
same,CDM Obsd,[2]; [4],99%
same,CDM Obsd,[2]; [5],100%
same,CDM Obsd,[2]; [6],100%
same,CDM Obsd,[2]; [7],100%
same,CDM Obsd,[2]; component (b) alone 2 ppm (Compound 1 0 ppm),0%
same,CDM Obsd,[2]; component (b) alone 10 ppm (Compound 1 0 ppm),72%
same,CDM Obsd,[2]; component (b) alone 40 ppm (Compound 1 0 ppm),100%
same,CDM Obsd,[2]; component (b) alone 200 ppm (Compound 1 0 ppm),100%
same,CDM Obsd,"[2]; component (b) alone, 2 ppm",0%
same,CDM Obsd,"[2]; component (b) alone, 10 ppm",99%
same,CDM Obsd,"[2]; component (b) alone, 40 ppm",100%
same,CDM Obsd,"[2]; component (b) alone, 200 ppm",100%
same,CDM Obsd,"[2]; component (b) alone, 500 ppm",100%
